Assay results: US10065928B2, “Quinolinone compound and use thereof” (Sunshine Lake Pharma Co., Ltd., priority 2014, dated 2018)

System: erythropoietin (EPO) production in Hep3B cells
Experiment: Activity in inducing erythropoietin (EPO) production in vitro, Hep3B cells, EPO ELISA
Format: cell-based
Details: Homo sapiens, 24 h, EPO in supernatant by ELISA
Protocol: The activities of compounds of the invention in inducing erythropoietin (EPO) production were assessed by using human live cancer cell strain Hep3B (ATCC: American type culture collection, Manassas, Va.). Hep3B cells seeded in a 96-well plate with a density of 2.5×10^4 cells/well were cultivated overnight in DMEM culture medium (Dulbecco's Modified Eagle's Medium) at 37° C. in the presence of 10% fetal bovine serum (FBS). The next day, the supernatant liquid of culture medium was abandoned by suction, and to the residue was added fresh DMEM (containing 0.5% DMSO, 0.5% FBS) containing compound of the invention with a series of concentrations (0.31160.00 μM) or containing solvent used for comparison. The cells were cultivated at 37° C. for 24 h. The supernatant liquid was collected and the EPO concentration of the supernatant was quantified by using human EPO ELISA kit (Abcam). The activity of each compound in inducing erythropoietin (EPO) production was represented by half maximal effective concentration (EC50).

SMILES | EC50 [µM]
Cn1c(=O)c(C(=O)NCC(=O)O)c(O)c2cc(S(=O)(=O)n3ccc4ccccc43)ccc21 [Example 7, 2-(6-((1H-indol-1-yl)sulfonyl)-4-hydroxy-1-methyl-2-oxo-1,2-dihydroquinoline-3-carboxamido)acetic acid] | 6.83
CN(C(=O)c1ccc2c(c1)c(O)c(C(=O)NCC(=O)O)c(=O)n2C)C(c1ccccc1)c1ccccc1 [Example 11, 2-(6-(benzhydryl(methyl)carbamoyl)-4-hydroxy-1-methyl-2-oxo-1,2-dihydroquinoline-3-carboxamido)acetic acid] | 10.2
Cn1c(=O)c(C(=O)NCC(=O)O)c(O)c2ccc(Oc3cccc(F)c3F)cc21 [Example 14, 2-(7-(2,3-difluorophenoxy)-4-hydroxy-1-methyl-2-oxo-1,2-dihydroquinoline-3-carboxamido)acetic acid] | 10.2
Cn1c(=O)c(C(=O)NCC(=O)O)c(O)c2ccc(Oc3ccc(F)cc3F)cc21 [Example 15, 2-(7-(2,4-difluorophenoxy)-4-hydroxy-1-methyl-2-oxo-1,2-dihydroquinoline-3-carboxamido)acetic acid] | 6.92
Cn1c(=O)c(C(=O)NCC(=O)O)c(O)c2ccc(Oc3c(F)cccc3F)cc21 [Example 16, 2-(7-(2,6-difluorophenoxy)-4-hydroxy-1-methyl-2-oxo-1,2-dihydroquinoline-3-carboxamido)acetic acid] | 8.83
Cn1c(=O)c(C(=O)NCC(=O)O)c(O)c2ccc(Oc3c(F)cccc3Cl)cc21 [Example 23, 2-(7-(2-chloro-6-fluorophenoxy)-4-hydroxy-1-methyl-2-oxo-1,2-dihydroquinoline-3-carboxamido)acetic acid] | 9.23
Cn1c(=O)c(C(=O)NCC(=O)O)c(O)c2ccc(Oc3cccc(F)c3Cl)cc21 [Example 24, 2-(7-(2-chloro-3-fluorophenoxy)-4-hydroxy-1-methyl-2-oxo-1,2-dihydroquinoline-3-carboxamido)acetic acid] | 9.53
Cn1c(=O)c(C(=O)NCC(=O)O)c(O)c2ccc(Oc3ccc(Cl)c(F)c3)cc21 [Example 25, 2-(7-(4-chloro-3-fluorophenoxy)-4-hydroxy-1-methyl-2-oxo-1,2-dihydroquinoline-3-carboxamido)acetic acid] | 10.2
Cn1c(=O)c(C(=O)NCC(=O)O)c(O)c2ccc(Oc3cc(F)cc(Cl)c3)cc21 [Example 26, 2-(7-(3-chloro-5-fluorophenoxy)-4-hydroxy-1-methyl-2-oxo-1,2-dihydroquinoline-3-carboxamido)acetic acid] | 13.5
Cn1c(=O)c(C(=O)NCC(=O)O)c(O)c2ccc(Oc3cc(F)ccc3Cl)cc21 [Example 27, 2-(7-(2-chloro-5-fluorophenoxy)-4-hydroxy-1-methyl-2-oxo-1,2-dihydroquinoline-3-carboxamido)acetic acid] | 6.85
Cn1c(=O)c(C(=O)NCC(=O)O)c(O)c2ccc(Oc3ccc(F)c(Cl)c3)cc21 [Example 29, 2-(7-(3-chloro-4-fluorophenoxy)-4-hydroxy-1-methyl-2-oxo-1,2-dihydroquinoline-3-carboxamido)acetic acid] | 10.2
Cn1c(=O)c(C(=O)NCC(=O)O)c(O)c2ccc(Oc3cc(Cl)cc(Cl)c3)cc21 [Example 34, 2-(7-(3,5-dichlorophenoxy)-4-hydroxy-1-methyl-2-oxo-1,2-dihydroquinoline-3-carboxamido)acetic acid] | 20.2
COc1ccccc1Oc1ccc2c(O)c(C(=O)NCC(=O)O)c(=O)n(C)c2c1 [Example 38, 2-(4-hydroxy-7-(2-methoxyphenoxy)-1-methyl-2-oxo-1,2-dihydroquinoline-3-carboxamido)acetic acid] | 8.85
O=C(O)CNC(=O)c1c(O)c2ccc(Oc3ccccc3)cc2n(CCC2CC2)c1=O [Example 42, 2-(1-(cyclopropylethyl)-4-hydroxy-2-oxo-7-phenoxy-1,2-dihydroquinoline-3-carboxamido)acetic acid] | 3.34
Cn1c(=O)c(C(=O)NCC(=O)O)c(O)c2ccc(Oc3ccncc3)cc21 [Example 43, 2-(4-hydroxy-1-methyl-2-oxo-7-(pyridin-4-yloxy)-1,2-dihydroquinoline-3-carboxamido)acetic acid] | 28.9

More lines, now with the values ahead:

EC50 [µM] | SMILES
4 | Cn1c(=O)c(C(=O)NCC(=O)O)c(O)c2cc(Oc3ccccc3)ccc21 [Example 5, 2-(4-hydroxy-1-methyl-2-oxo-6-phenoxy-1,2-dihydroquinoline-3-carboxamido)acetic acid]
1.63 | Cn1c(=O)c(C(=O)NCC(=O)O)c(O)c2ccc(Oc3ccc4ccccc4c3)cc21 [Example 8, 2-(4-hydroxy-1-methyl-7-(naphthalen-2-yloxy)-2-oxo-1,2-dihydroquinoline-3-carboxamido)acetic acid]
2.52 | Cn1c(=O)c(C(=O)NCC(=O)O)c(O)c2cc(Oc3ccc4ccccc4c3)ccc21 [Example 9, 2-(4-hydroxy-1-methyl-6-(naphthalen-2-yloxy)-2-oxo-1,2-dihydroquinoline-3-carboxamido)acetic acid]
4.24 | Cn1c(=O)c(C(=O)NCC(=O)O)c(O)c2ccc(Oc3cccc(Cl)c3)cc21 [Example 12, 2-(7-(3-chlorophenoxy)-4-hydroxy-1-methyl-2-oxo-1,2-dihydroquinoline-3-carboxamido)acetic acid]
3.16 | Cn1c(=O)c(C(=O)NCC(=O)O)c(O)c2ccc(Oc3ccc(F)c(F)c3)cc21 [Example 17, 2-(7-(3,4-difluorophenoxy)-4-hydroxy-1-methyl-2-oxo-1,2-dihydroquinoline-3-carboxamido)acetic acid]
6.28 | Cn1c(=O)c(C(=O)NCC(=O)O)c(O)c2ccc(Oc3cc(F)cc(F)c3)cc21 [Example 18, 2-(7-(3,5-difluorophenoxy)-4-hydroxy-1-methyl-2-oxo-1,2-dihydroquinoline-3-carboxamido)acetic acid]
3.75 | Cn1c(=O)c(C(=O)NCC(=O)O)c(O)c2ccc(Oc3cccc(Cl)c3F)cc21 [Example 20, 2-(7-(3-chloro-2-fluorophenoxy)-4-hydroxy-1-methyl-2-oxo-1,2-dihydroquinoline-3-carboxamido)acetic acid]
5.75 | Cn1c(=O)c(C(=O)NCC(=O)O)c(O)c2ccc(Oc3ccc(Cl)cc3F)cc21 [Example 21, 2-(7-(4-chloro-2-fluorophenoxy)-4-hydroxy-1-methyl-2-oxo-1,2-dihydroquinoline-3-carboxamido)acetic acid]
1.97 | Cn1c(=O)c(C(=O)NCC(=O)O)c(O)c2ccc(Oc3cccc(Cl)c3Cl)cc21 [Example 30, 2-(7-(2,3-dichlorophenoxy)-4-hydroxy-1-methyl-2-oxo-1,2-dihydroquinoline-3-carboxamido)acetic acid]
4.15 | Cn1c(=O)c(C(=O)NCC(=O)O)c(O)c2ccc(Oc3ccc(Cl)cc3Cl)cc21 [Example 31, 2-(7-(2,4-dichlorophenoxy)-4-hydroxy-1-methyl-2-oxo-1,2-dihydroquinoline-3-carboxamido)acetic acid]
3.63 | Cn1c(=O)c(C(=O)NCC(=O)O)c(O)c2ccc(Oc3c(Cl)cccc3Cl)cc21 [Example 32, 2-(7-(2,6-dichlorophenoxy)-4-hydroxy-1-methyl-2-oxo-1,2-dihydroquinoline-3-carboxamido)acetic acid]
2.56 | Cn1c(=O)c(C(=O)NCC(=O)O)c(O)c2ccc(Oc3ccc(Cl)c(Cl)c3)cc21 [Example 33, 2-(7-(3,4-dichlorophenoxy)-4-hydroxy-1-methyl-2-oxo-1,2-dihydroquinoline-3-carboxamido)acetic acid]
2.25 | Cn1c(=O)c(C(=O)NCC(=O)O)c(O)c2ccc(Oc3cc(Cl)ccc3Cl)cc21 [Example 35, 2-(7-(2,5-dichlorophenoxy)-4-hydroxy-1-methyl-2-oxo-1,2-dihydroquinoline-3-carboxamido)acetic acid]
2.95 | COc1ccc(Oc2ccc3c(O)c(C(=O)NCC(=O)O)c(=O)n(C)c3c2)cc1 [Example 36, 2-(4-hydroxy-7-(4-methoxyphenoxy)-1-methyl-2-oxo-1,2-dihydroquinoline-3-carboxamido)acetic acid]
6.26 | COc1cccc(Oc2ccc3c(O)c(C(=O)NCC(=O)O)c(=O)n(C)c3c2)c1 [Example 37, 2-(4-hydroxy-7-(3-methoxyphenoxy)-1-methyl-2-oxo-1,2-dihydroquinoline-3-carboxamido)acetic acid]
4.89 | Cn1c(=O)c(C(=O)NCC(=O)O)c(O)c2cc(F)c(Oc3ccccc3)cc21 [Example 39, 2-(6-fluoro-4-hydroxy-1-methyl-2-oxo-7-phenoxy-1,2-dihydroquinoline-3-carboxamido)acetic acid]
4.06 | Cn1c(=O)c(C(=O)NCC(=O)O)c(O)c2ccc(Oc3ccccc3OC(F)(F)F)cc21 [Example 40, 2-(4-hydroxy-1-methyl-2-oxo-7-(2-(trifluoromethoxy)phenoxy)-1,2-dihydroquinoline-3-carboxamido)acetic acid]
6.02 | Cn1c(=O)c(C(=O)NCC(=O)O)c(O)c2ccc(Oc3ccccc3F)cc21 [Example 45, 2-(7-(2-fluorophenoxy)-4-hydroxy-1-methyl-2-oxo-1,2-dihydroquinoline-3-carboxamido)acetic acid]
3.61 | Cn1c(=O)c(C(=O)NCC(=O)O)c(O)c2ccc(Oc3cccc(F)c3)cc21 [Example 46, 2-(7-(3-fluorophenoxy)-4-hydroxy-1-methyl-2-oxo-1,2-dihydroquinoline-3-carboxamido)acetic acid]
